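Tested at 5 concentrations; 48 h exposure; 96-well plates; endpoints linearly interpolated, else capped at highest concentration. The concentration for 50% growth inhibition is given as GI50.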 Activity calls are given as the source filed them. Cut-off read from the data, not from the text of the source: active = GI50 up to about 1.1 µM and inactive = higher.
Experiments:
Assay in all cases: inhibition of tumour cell growth, NCI panel, 48 h
[1] = tested on: CAKI-1
[2] = tested on: RXF 393
[3] = tested on: MOLT-4
[4] = tested on: ACHN
[5] = tested on: CCRF-CEM
[6] = tested on: 786-0
[7] = tested on: NCI-H460
[8] = tested on: SK-MEL-2
[9] = tested on: NCI-H226
[10] = tested on: RPMI-8226
[11] = tested on: TK-10
[12] = tested on: UO-31
[13] = tested on: NCI-H522
[14] = tested on: COLO 205
[15] = tested on: SNB-19
[16] = tested on: HOP-92
[17] = tested on: SF-295
[18] = tested on: HCT-116
[19] = tested on: SF-539
[20] = tested on: HCC 2998

Measured: GI50

O=[N+]([O-])c1ccc(C2c3c(O)nc(S)nc3Oc3nc(S)nc(O)c32)cc1
inactive: [1] > 100 µM | [2] > 100 µM | [3] > 100 µM | [4] > 100 µM | [5] > 100 µM | [6] > 100 µM | [7] > 100 µM | [8] > 100 µM | [9] > 100 µM | [10] > 100 µM | [11] > 100 µM | [12] > 100 µM | [13] > 100 µM | [14] > 100 µM | [15] > 100 µM | [16] > 100 µM | [17] > 100 µM | [18] > 100 µM

C=C=C(C(=O)OC)[S+]([O-])c1ccccc1[N+](=O)[O-] (stereo not drawn)
inactive: [1] > 100 µM | [19] > 100 µM | [2] > 100 µM | [3] > 100 µM | [4] > 100 µM | [5] 24.7 µM | [6] > 100 µM | [7] > 100 µM | [8] > 100 µM | [9] > 100 µM | [10] > 100 µM | [11] > 100 µM | [12] > 100 µM | [13] 22.3 µM | [14] > 100 µM | [15] > 100 µM | [20] > 100 µM | [17] > 100 µM | [18] 89.9 µM

COc1cc2c(cc1OC)C(Cl)C(c1ccc(Cl)c(Cl)c1)=C2Cl (stereo not drawn)
inactive: [1] 11.2 µM | [19] 10.3 µM | [3] 2.92 µM | [4] 10.2 µM | [5] 3.02 µM | [7] 4.09 µM | [8] 6.84 µM | [9] 8.99 µM | [10] 3.14 µM | [11] 20.7 µM | [12] 10.6 µM | [13] 66.4 µM | [14] 10.7 µM | [15] 15.6 µM | [16] 4.15 µM | [17] 9.82 µM

COC(=O)/C=C(C)/C=C\COC1CCCCO1 (stereo not drawn)
inactive: [1] > 100 µM | [2] > 100 µM | [3] > 100 µM | [4] > 100 µM | [5] > 100 µM | [6] > 100 µM | [7] > 100 µM | [8] > 100 µM | [9] > 100 µM | [10] > 100 µM | [11] > 100 µM | [12] > 100 µM | [13] > 100 µM | [14] > 100 µM | [15] > 100 µM | [20] > 100 µM | [17] > 100 µM | [18] > 100 µM

O=c1[nH]c(=O)n(COCc2ccccc2)c2ccccc12
inactive: [1] 62.7 µM | [19] 47.9 µM | [2] 19.1 µM | [3] 44.4 µM | [4] 32.1 µM | [5] 56.9 µM | [6] > 100 µM | [7] 40.9 µM | [8] > 100 µM | [9] 47.8 µM | [11] 51.5 µM | [12] 29.1 µM | [14] 72.3 µM | [15] 23 µM | [16] 77.6 µM | [17] > 100 µM | [18] 46.3 µM

Nc1c(-c2ccccc2)c2ccc([N+](=O)[O-])cc2c(=O)n1-c1cccc(C(=O)O)c1
inactive: [1] > 100 µM | [19] > 100 µM | [2] > 100 µM | [3] > 100 µM | [4] > 100 µM | [5] 94.6 µM | [6] > 10 µM | [7] > 100 µM | [8] > 100 µM | [9] > 100 µM | [10] > 100 µM | [11] > 100 µM | [12] > 100 µM | [13] > 100 µM | [15] > 100 µM | [20] > 100 µM | [17] > 100 µM | [18] > 100 µM

CC(C)=CC1C(COC(=O)c2cc3c(cc2Cl)OCO3)C1(C)C (stereo not drawn)
inactive: [1] 22.7 µM | [2] 20.8 µM | [3] 16.1 µM | [4] 33.1 µM | [5] 26.9 µM | [6] 37.8 µM | [7] 33 µM | [8] 18.6 µM | [9] 42.4 µM | [11] > 100 µM | [12] 54.2 µM | [13] 18 µM | [15] 95.7 µM | [16] 23.8 µM | [17] 34.4 µM | [18] 33.4 µM

O=[N+]([O-])/C(C(Cl)=C(Cl)Cl)=C1\Nc2ccc([N+](=O)[O-])cc2N1
inactive: [1] 72.1 µM | [3] 45.1 µM | [4] > 100 µM | [5] 27.4 µM | [6] > 100 µM | [7] > 100 µM | [8] > 100 µM | [9] > 100 µM | [10] 55 µM | [11] > 100 µM | [12] 14.1 µM | [13] 13.5 µM | [14] > 100 µM | [15] > 100 µM | [16] 14.3 µM | [17] > 100 µM | [18] 46.5 µM

O=C1C=CC2(C=C1)C[C@H](NC(=O)C(F)(F)F)C(=O)O2
inactive: [1] 30.5 µM | [19] 34.7 µM | [2] 27.5 µM | [3] 20.4 µM | [4] > 100 µM | [5] 16.4 µM | [6] > 100 µM | [7] > 100 µM | [9] > 100 µM | [10] 31.3 µM | [11] > 100 µM | [12] > 100 µM | [13] 17.3 µM | [14] 29.6 µM | [15] > 100 µM | [20] 46.9 µM | [17] > 100 µM | [18] 58.9 µM

CCC(=O)C(CCN1CCC(N2C(=O)C(CCC#N)c3ccccc32)CC1)(c1ccccc1)c1ccccc1 (stereo not drawn)
inactive: [1] 21.9 µM | [19] 18.3 µM | [2] 3.37 µM | [3] 4.56 µM | [4] 15.9 µM | [6] 12.3 µM | [7] 11.3 µM | [8] 13.9 µM | [9] 17.3 µM | [10] 4.17 µM | [11] 12.5 µM | [12] 9.53 µM | [13] 12.7 µM | [14] 8.97 µM | [15] 17.2 µM | [20] 12.4 µM | [17] 13.3 µM | [18] 4.9 µM

CC(O)C(NC(=O)C(CS)NC(=O)C(CO)NC(=O)C(CCCCN)NC(=O)C(Cc1c[nH]c2ccccc12)NC(=O)C(Cc1ccc(O)cc1)NC(=O)C(CS)NC(=O)C(N)Cc1ccccc1)C(N)=O (stereo not drawn)
inactive: [1] > 25 µM | [19] > 25 µM | [2] > 25 µM | [3] > 25 µM | [4] > 25 µM | [5] > 25 µM | [6] > 25 µM | [7] 22.2 µM | [8] > 25 µM | [9] > 25 µM | [10] > 25 µM | [12] > 25 µM | [13] > 25 µM | [14] > 25 µM | [15] 26.2 µM | [20] > 25 µM | [17] > 25 µM | [18] > 25 µM

Reference: ChEMBL document CHEMBL1201862, “PubChem BioAssay data set” (2004)
